This is an account of results in patent US20240217978A1 (CHONG KUN DANG PHARMACEUTICAL CORP., priority 2021, published 2024).

Molecules are shown by their SMILES. pIC50: −log10 of the molar value.

Sequence of human adenosine A2a receptor (P29274 whole entry): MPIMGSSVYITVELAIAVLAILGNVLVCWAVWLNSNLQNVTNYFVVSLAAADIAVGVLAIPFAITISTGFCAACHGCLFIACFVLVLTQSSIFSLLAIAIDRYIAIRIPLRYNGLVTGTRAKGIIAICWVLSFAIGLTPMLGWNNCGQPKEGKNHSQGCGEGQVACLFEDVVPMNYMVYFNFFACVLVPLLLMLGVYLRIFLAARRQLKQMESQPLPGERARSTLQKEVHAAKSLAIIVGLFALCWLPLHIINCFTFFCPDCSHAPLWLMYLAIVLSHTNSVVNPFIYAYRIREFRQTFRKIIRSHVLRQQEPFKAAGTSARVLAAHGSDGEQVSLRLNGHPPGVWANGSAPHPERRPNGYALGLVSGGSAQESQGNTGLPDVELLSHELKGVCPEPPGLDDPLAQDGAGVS

The target in the experiment is human adenosine A2a receptor (Homo sapiens (Human), UniProt P29274). Description: A2a receptor binding affinity, [3H]-NECA radioligand binding test. To be noted: [3H]-NECA 37 nM; membrane from HEK-293 cells transfected with human adenosine A2a receptor. How it is done:
The binding affinity of the compounds according to Examples of the present invention to the human adenosine A2a receptor was evaluated by entrusting SB drug discovery in the UK.
A radioligand binding test was conducted by using [3H]-NECA (5′-N-[adenine-2,8-3H]-ethylcarboxamidoadenosine) and an adenosine A2a membrane. As the adenosine A2a membrane, a cell membrane prepared from HEK-293 cells transfected with human adenosine A2a receptor was used. The membrane used for the test was prepared by incubating with a radioligand until equilibrium was reached. In order to separate the radioligand-bound membrane, the unbound radioligand was separated by using Packard filtermate Harverster and glass filter plates.
10 μL of test compound dissolved in binding buffer (50 mM Tris, 10 mM MgCl2, 1 mM EDTA pH 7.4) and 20 μL of [3H]-NECA (final concentration of 37 nM) or reference inhibitor was mixed with 20 μL of A2a membrane in an unbound 96-well plate and incubated at room temperature for one hour. Prior to filtration, a 96-well harvest filter plate was coated with 0.33% polyethylenimine for 30 minutes and then washed with assay buffer. The binding reaction was transferred to the filter plate and washed three times with wash buffer. The dish was then dried, scintillant was added, and radioactivity was counted in a scintillation counter (Topcount NXT, Packard).
The binding affinity IC50 (μM) for the human adenosine A2a receptor obtained according to the above experimental method is shown in the table below.
As for `Nc1nc(N2CC[C@H]2C(=O)N2CCC(C3CCN(CC(F)(F)F)CC3)CC2)cc2nc(-c3ccco3)nn12` [Example 377, (S)-(1-(5-amino-2-(furan-2-yl)-[1,2,4]triazolo[1,5-c]pyrimidin-7-yl)azetidin-2-yl)(1′-(2,2,2-trifluoroethyl)-[4,4′-bipiperidin]-1-yl)methanone], the pIC50 – broadly, the negative decadic logarithm of the IC50, by convention in mol/L – is 10.00.

With `Nc1nc(N2CC3(CC3)C[C@H]2C(=O)N2CCN(CC(F)(F)F)CC2)nc2nc(-c3ccco3)nn12` [Example 385, (S)-(5-(7-amino-2-(furan-2-yl)-[1,2,4]triazolo[1,5-a][1,3,5]triazin-5-yl)-5-azaspiro[2.4]heptan-6-yl)(4-(2,2,2-trifluoroethyl)piperazin-1-yl)methanone], the pIC50 is 9.10.

`CC(C)(O)CC(=O)N1CCC(C2CCN(C(=O)[C@@H]3CCN3c3nc(N)n4nc(-c5ccco5)nc4n3)CC2)CC1` [Example 327, (S)-1-(1′-(1-(7-amino-2-(furan-2-yl)-[1,2,4]triazolo[1,5-a][1,3,5]triazin-5-yl)azetidine-2-carbonyl)-[4,4′-bipiperidin]-1-yl)-3-hydroxy-3-methylbutan-1-one] gave a pIC50 of 7.96.

As to `Nc1nc(N[C@@H](Cc2ccccc2)C(=O)N2CCN(Cc3ccc(F)cc3)CC2)nc2nc(-c3ccco3)nn12` [Example 18, (S)-2-((7-amino-2-(furan-2-yl)-[1,2,4]triazolo[1,5-a][1,3,5]triazin-5-yl)amino)-1-(4-(4-fluorobenzyl)piperazin-1-yl)-3-phenylpropan-1-one], the pIC50 is 9.90.

For the molecule `CC(C)(F)C(=O)N1CCN(C(=O)[C@@H]2CCCN2c2nc(N)n3nc(-c4ccco4)nc3n2)CC1` [Example 85, 1-(4-((7-amino-2-(furan-2-yl)-[1,2,4]triazolo[1,5-a][1,3,5]triazin-5-yl)-L-prolyl)piperazin-1-yl)-2-fluoro-2-methylpropan-1-one], the pIC50 is 7.55. This pIC50 is 2.35 log units lower than that of the molecule before.

The molecule `C[C@H](Nc1nc(N)n2nc(-c3ccco3)nc2n1)C(=O)N1CCN(Cc2ccccc2)CC1` [Example 21, (S)-2-((7-amino-2-(furan-2-yl)-[1,2,4]triazolo[1,5-a][1,3,5]triazin-5-yl)amino)-1-(4-benzylpiperazin-1-yl)propan-1-one] had a pIC50 of 7.52.

As to `CCCCN1CCN(C(=O)[C@@H]2CCCN2c2nc(N)n3nc(-c4ccco4)nc3n2)CC1` [Example 47, (S)-(1-(7-amino-2-(furan-2-yl)-[1,2,4]triazolo[1,5-a][1,3,5]triazin-5-yl)pyrrolidin-2-yl)(4-butylpiperazin-1-yl) methanone], the pIC50 is 8.10.

In turn, `COc1cccc(C(=O)N2CCN(C(=O)[C@@H]3CCCN3c3nc(N)n4nc(-c5ccco5)nc4n3)CC2)c1` [Example 63] had a negative-log IC50 (pIC50) of 9.00.

`Nc1nc(N2CCC[C@H]2C(=O)N2CCN(CC(F)F)CC2)nc2sc(-c3ccco3)nc12` [Example 258, (S)-(1-(7-amino-2-(furan-2-yl)thiazolo[5,4-d]pyrimidin-5-yl)pyrrolidin-2-yl)(4-(2,2-difluoroethyl)piperazin-1-yl)methanone] had a pIC50 of 8.10.

In turn, `Nc1nc(N2CCC[C@@H]2C(=O)N2CCN(Cc3ccccc3)CC2)nc2nc(-c3ccco3)nn12` [Example 95, (R)-(1-(7-amino-2-(furan-2-yl)-[1,2,4]triazolo[1,5-a][1,3,5]triazin-5-yl)pyrrolidin-2-yl)(4-benzylpiperazin-1-yl)methanone] had a pIC50 of 5.30.

`Nc1nc(N2CCC[C@H]2C(=O)N2CCC(CN3CC(F)C3)CC2)nc2nc(-c3ccco3)nn12` [Example 406, (S)-(1-(7-amino-2-(furan-2-yl)-[1,2,4]triazolo[1,5-a][1,3,5]triazin-5-yl)pyrrolidin-2-yl)(4-((3-fluoroazetidin-1-yl)methyl)piperidin-1-yl)methanone] had a pIC50 of 7.77.

`Cc1ccc(-c2nc3nc(N4CCC[C@H]4C(=O)N4CCN(CC(F)(F)F)C[C@H]4C)nc(N)n3n2)o1` [Example 196, ((S)-1-(7-amino-2-(5-methylfuran-2-yl)-[1,2,4]triazolo[1,5-a][1,3,5]triazin-5-yl)pyrrolidin-2-yl)((R)-2-methyl-4-(2,2,2-trifluoroethyl)piperazin-1-yl)methanone] had a pIC50 of 8.10.

In turn, `Cc1ccc(-c2nc3nc(N4CCC[C@H]4C(=O)N4CCN(CC(C)(F)F)CC4)nc(N)n3n2)o1` [Example 311, (S)-(1-(7-amino-2-(5-methylfuran-2-yl)-[1,2,4]triazolo[1,5-a][1,3,5]triazin-5-yl)pyrrolidin-2-yl)(4-(2,2-difluoropropyl)piperazin-1-yl)methanone] had a pIC50 of 8.70.

For the molecule `CCCCN1CCN(C(=O)[C@@H](Nc2nc(N)n3nc(-c4ccco4)nc3n2)C(C)C)CC1` [Example 143, (S)-2-((7-amino-2-(furan-2-yl)-[1,2,4]triazolo[1,5-a][1,3,5]triazin-5-yl)amino)-1-(4-butylpiperazin-1-yl)-3-methylbutan-1-one], the pIC50 is 7.70.

The molecule `Nc1nc(N[C@H](C(=O)N2CCN(c3ccc(F)cc3F)CC2)C2CCCCC2)nc2nc(-c3ccco3)nn12` [Example 11, (S)-2-((7-amino-2-(furan-2-yl)-[1,2,4]triazolo[1,5-a][1,3,5]triazin-5-yl)amino)-2-cyclohexyl-1-(4-(2,4-difluorophenyl)piperazin-1-yl)ethan-1-one] gave a pIC50 of 10.00.

For the molecule `Nc1nc(N2CCC[C@H]2C(=O)N2CCN(CC(F)F)CC23CC3)nc2nc(-c3ccco3)nn12` [Example 341, (S)-(1-(7-amino-2-(furan-2-yl)-[1,2,4]triazolo[1,5-a][1,3,5]triazin-5-yl)pyrrolidin-2-yl)(7-(2,2-difluoroethyl)-4,7-diazaspiro[2.5]octan-4-yl)methanone], the pIC50 was 7.55.

`CC(F)(F)CN1CCC(C2CCN(C(=O)[C@@H]3CCN3c3cc4nc(-c5ccco5)nn4c(N)n3)CC2)CC1` [Example 379, (S)-(1-(5-amino-2-(furan-2-yl)-[1,2,4]triazolo[1,5-c]pyrimidin-7-yl)azetidin-2-yl)(1′-(2,2-difluoropropyl)-[4,4′-bipiperidin]-1-yl)methanone] had a pIC50 of 8.70.

`COCCN1CCC(C2CCN(C(=O)[C@@H]3CCN3c3nc(N)n4nc(-c5ccco5)nc4n3)CC2)CC1` [Example 329, (S)-(1-(7-amino-2-(furan-2-yl)-[1,2,4]triazolo[1,5-a][1,3,5]triazin-5-yl)azetidin-2-yl)(1′-(2-methoxyethyl)-[4,4′-bipiperidin]-1-yl)methanone] had a pIC50 of 7.59.

The molecule `CC(C)(F)CN1CCC(C2CCN(C(=O)[C@@H]3CCN3c3nc(N)n4nc(-c5ccco5)nc4n3)CC2)CC1` [Example 322, (S)-(1-(7-amino-2-(furan-2-yl)-[1,2,4]triazolo[1,5-a][1,3,5]triazin-5-yl)azetidin-2-yl)(1′-(2-fluoro-2-methylpropyl)-[4,4′-bipiperidin]-1-yl) methanone] gave a pIC50 of 8.22.

Regarding `C[C@@H]1CN(CC(C)(C)O)CCN1C(=O)[C@@H]1CCCN1c1nc(N)n2nc(-c3ccco3)nc2n1` [Example 373, ((S)-1-(7-amino-2-(furan-2-yl)-[1,2,4]triazolo[1,5-a][1,3,5]triazin-5-yl)pyrrolidin-2-yl)((R)-4-(2-hydroxy-2-methylpropyl)-2-methylpiperazin-1-yl)methanone], the pIC50 is 8.70. This pIC50 lies 0.48 log units higher than the previous one.

In the case of `CC(F)(F)CN1CCC(C2CCN(C(=O)[C@@H]3CCCN3c3nc(N)n4nc(-c5ccco5)nc4n3)CC2)CC1` [Example 288, (S)-(1-(7-amino-2-(furan-2-yl)-[1,2,4]triazolo[1,5-a][1,3,5]triazin-5-yl)pyrrolidin-2-yl)(1′-(2,2-difluoropropyl)-[4,4′-bipiperidin]-1-yl)methanone], the pIC50 is 8.52. This pIC50 and that of the molecule before are within 0.2 log units of each other.

In turn, `COCCN1CCN(C(=O)[C@H](C)Nc2nc(N)n3nc(-c4ccco4)nc3n2)CC1` [Example 118, (S)-2-((7-amino-2-(furan-2-yl)-[1,2,4]triazolo[1,5-a][1,3,5]triazin-5-yl)amino)-1-(4-(2-methoxyethyl)piperazin-1-yl)propan-1-one] had a pIC50 of 7.68.

`Nc1nc(N2CCC[C@H]2C(=O)N2CCN(CC(F)(F)C(F)F)CC2)nc2sc(-c3ccco3)nc12` [Example 260, (S)-(1-(7-amino-2-(furan-2-yl)thiazolo[5,4-d]pyrimidin-5-yl)pyrrolidin-2-yl)(4-(2,2,3,3-tetrafluoropropyl)piperazin-1-yl)methanone] gave a pIC50 of 9.05.

On to `Nc1nc(N2CCC[C@H]2C(=O)N2CCC(C3CCN(C(=O)c4ccccc4)CC3)CC2)nc2nc(-c3ccco3)nn12` [Example 161, (1′-((7-amino-2-(furan-2-yl)-[1,2,4]triazolo[1,5-a][1,3,5]triazin-5-yl)-L-prolyl)-[4,4′-bipiperidin]-1-yl)(phenyl)methanone], for which the pIC50 was 8.05. Compared with the last molecule, the pIC50 is 1.00 log units lower.

In turn, `Nc1nc(N2CCC[C@@H]2C(=O)N2CCN(CC(F)(F)F)CC2)nc2nc(-c3ccco3)nn12` [Example 94, (R)-(1-(7-amino-2-(furan-2-yl)-[1,2,4]triazolo[1,5-a][1,3,5]triazin-5-yl)pyrrolidin-2-yl)(4-(2,2,2-trifluoroethyl)piperazin-1-yl)methanone] gave a pIC50 of 5.36.

The molecule `Nc1nc(N2CCC[C@H]2C(=O)N2CCC(F)(F)CC2)nc2nc(-c3ccco3)nn12` [Example 55, (S)-(1-(7-amino-2-(furan-2-yl)-[1,2,4]triazolo[1,5-a][1,3,5]triazin-5-yl)pyrrolidin-2-yl)(4,4-difluoropiperidin-1-yl)methanone] gave a pIC50 of 7.80. Compared with the last molecule, the pIC50 is 2.44 log units higher.
